Assay results: patent US20070049564A1 (Wyeth, priority 2005, published 2007)
Converted amounts (≈) assume the structure as drawn. Where two headings read alike, the source gives them in different places.

Tests used:
S. aureus GC 2216 = assay: MIC, broth microdilution; conditions: Staphylococcus aureus, GC2216, S. aureus GC 2216
S. pneumoniae* GC 4465 = assay: MIC, broth microdilution; conditions: Streptococcus pneumoniae, S. pneumoniae* GC 4465
Staph. aureus Smith = assay: In vivo activity (oral, iv; ED50) against Staph. aureus Smith in mice
Description: Representative examples of compounds of Formula I were tested for the oral efficacy using S. aureus Smith in mice.

E. coli GC 4560 = assay: MIC, broth microdilution; conditions: Escherichia coli, GC4560, E. coli GC 4560
P. aeruginosa GC 2214 = assay: MIC, broth microdilution; conditions: Pseudomonas aeruginosa, GC2214, P. aeruginosa GC 2214
S. aureus GC 4536 = assay: MIC, broth microdilution; conditions: Staphylococcus aureus, GC4536, S. aureus GC 4536
S. aureus GC 1131 = assay: MIC, broth microdilution; conditions: Staphylococcus aureus, GC1131, S. aureus GC 1131
E. coli GC 6465 = assay: MIC, broth microdilution; conditions: Escherichia coli, GC6465, E. coli GC 6465
E. faecalis GC 2242 = assay: MIC, broth microdilution; conditions: Enterococcus faecalis, GC2242, E. faecalis GC 2242
E. faecalis GC 2267 = assay: MIC, broth microdilution; conditions: Enterococcus faecalis, GC2267, E. faecalis GC 2267
S. aureus GC 6467 = assay: MIC, broth microdilution; conditions: Staphylococcus aureus, GC6467, S. aureus GC 6467
E. coli GC 2234 = assay: MIC, broth microdilution; conditions: Escherichia coli, GC2234, E. coli GC 2234
E. coli GC 2203 = assay: MIC, broth microdilution; conditions: Escherichia coli, GC2203, E. coli GC 2203
S. aureus GC 6466 = assay: MIC, broth microdilution; conditions: Staphylococcus aureus, GC6466, S. aureus GC 6466
S. epidermidis GC 4935 = assay: MIC, broth microdilution; conditions: Staphylococcus epidermidis, GC4935, S. epidermidis GC 4935
S. pneumoniae+ GC 4465 = assay: MIC, broth microdilution; conditions: Streptococcus pneumoniae, S. pneumoniae+ GC 4465
E. coli GC 2231 = assay: MIC, broth microdilution; conditions: Escherichia coli, GC2231, E. coli GC 2231
E. coli GC 2232 = assay: MIC, broth microdilution; conditions: Escherichia coli, GC2232, E. coli GC 2232
E. coli GC 2272 = assay: MIC, broth microdilution; conditions: Escherichia coli, GC2272, E. coli GC 2272
E. coli GC 4559 = assay: MIC, broth microdilution; conditions: Escherichia coli, GC4559, E. coli GC 4559

CCCCN(CC(=O)Nc1cc(N(C)C)c2c(c1O)C(=O)C1=C(O)[C@]3(O)C(=O)C(C(N)=O)=C(O)[C@@H](N(C)C)C3CC1C2)C(=O)OCOC(=O)c1ccc(C)cc1 (stereo partly drawn) [Example 3, ({[(2-{[(7S,10aS)-9-(aminocarbonyl)-4,7-bis(dimethylamino)-1,8,10a,11-tetrahydroxy-10,12-dioxo-5,5a,6,6a,7,10,10a,12-octahydrotetracen-2-yl]amino}-2-oxoethyl)(butyl)amino]carbonyl}oxy)methyl 4-methylbenzoate] was tested, and the MIC (S. aureus GC 2216; Mouse Serum pre-incubation) was 1 µg/mL (≈ 1.29 µM), the MIC (S. aureus GC 2216; Water pre-incubation) was 4 µg/mL (≈ 5.14 µM) and the MIC (S. pneumoniae* GC 4465; Mouse Serum pre-incubation) was 0.12 µg/mL (≈ 0.154 µM). The MIC (S. pneumoniae* GC 4465; Water pre-incubation) was 0.25 µg/mL (≈ 0.321 µM), the ED50 (Staph. aureus Smith; Staphylococcus aureus, in Mus musculus, po, read-out: ED50 Staph Smith SOD) was 16.1 mg/kg and the ED50 (Staph. aureus Smith; iv, read-out: ED50 Staph Smith SIV) was 0.59 mg/kg. It also gave an MIC (E. coli GC 4560; Mouse Serum pre-incubation) of 0.5 µg/mL (≈ 0.643 µM), an MIC (E. coli GC 4560; Water pre-incubation) of 32 µg/mL (≈ 41.1 µM) and an MIC (P. aeruginosa GC 2214; Mouse Serum pre-incubation) of 32 µg/mL (≈ 41.1 µM). It also gave an MIC (P. aeruginosa GC 2214; Water pre-incubation) greater than 64 µg/mL, an MIC (S. aureus GC 4536; Mouse Serum pre-incubation) of 2 µg/mL (≈ 2.57 µM) and an MIC (S. aureus GC 4536; Water pre-incubation) of 4 µg/mL (≈ 5.14 µM). It also gave an MIC (S. aureus GC 1131; Mouse Serum pre-incubation) of 2 µg/mL (≈ 2.57 µM), an MIC (S. aureus GC 1131; Water pre-incubation) of 4 µg/mL (≈ 5.14 µM) and an MIC (E. coli GC 6465; Mouse Serum pre-incubation) of 8 µg/mL (≈ 10.3 µM). It also gave an MIC (E. coli GC 6465; Water pre-incubation) greater than 64 µg/mL, an MIC (E. faecalis GC 2242; Mouse Serum pre-incubation) of 2 µg/mL (≈ 2.57 µM) and an MIC (E. faecalis GC 2242; Water pre-incubation) of 16 µg/mL (≈ 20.6 µM). It also gave an MIC (E. faecalis GC 2267; Mouse Serum pre-incubation) of 2 µg/mL (≈ 2.57 µM), an MIC (E. faecalis GC 2267; Water pre-incubation) of 32 µg/mL (≈ 41.1 µM) and an MIC (S. aureus GC 6467; Mouse Serum pre-incubation) of 4 µg/mL (≈ 5.14 µM). It also gave an MIC (S. aureus GC 6467; Water pre-incubation) of 32 µg/mL (≈ 41.1 µM), an MIC (E. coli GC 2234; Mouse Serum pre-incubation) of 1 µg/mL (≈ 1.29 µM) and an MIC (E. coli GC 2234; Water pre-incubation) greater than 64 µg/mL. For the same compound, the MIC (E. coli GC 2203; Mouse Serum pre-incubation) was 1 µg/mL (≈ 1.29 µM), the MIC (E. coli GC 2203; Water pre-incubation) was greater than 64 µg/mL and the MIC (S. aureus GC 6466; Mouse Serum pre-incubation) was 1 µg/mL (≈ 1.29 µM). For the same compound, the MIC (S. aureus GC 6466; Water pre-incubation) was 4 µg/mL (≈ 5.14 µM), the MIC (S. epidermidis GC 4935; Mouse Serum pre-incubation) was 4 µg/mL (≈ 5.14 µM) and the MIC (S. epidermidis GC 4935; Water pre-incubation) was 8 µg/mL (≈ 10.3 µM). It also gave an MIC (S. pneumoniae+ GC 4465; Mouse Serum pre-incubation) of 1 µg/mL (≈ 1.29 µM), an MIC (S. pneumoniae+ GC 4465; Water pre-incubation) of 2 µg/mL (≈ 2.57 µM) and an MIC (E. coli GC 2231; Mouse Serum pre-incubation) of 2 µg/mL (≈ 2.57 µM). It also gave an MIC (E. coli GC 2231; Water pre-incubation) greater than 64 µg/mL, an MIC (E. coli GC 2232; Mouse Serum pre-incubation) of 2 µg/mL (≈ 2.57 µM) and an MIC (E. coli GC 2232; Water pre-incubation) greater than 64 µg/mL. It also gave an MIC (E. coli GC 2272; Mouse Serum pre-incubation) of 1 µg/mL (≈ 1.29 µM), an MIC (E. coli GC 2272; Water pre-incubation) greater than 64 µg/mL and an MIC (E. coli GC 4559; Mouse Serum pre-incubation) of 2 µg/mL (≈ 2.57 µM). It also gave an MIC (E. coli GC 4559; Water pre-incubation) greater than 64 µg/mL.
